From US8697720B2 (Crestone, Inc., priority 2006, dated 2014) come the findings set out here.

Assay [1] deals with C. difficile strain ATCC43255. The experiment in a line: Toxin A production in high cell density stationary phase C. difficile cultures (ELIFA). It is filed as cell-based. To be noted: 4 day old stationary phase cultures, toxin A by ELIFA. On the procedure: C. difficile strain ATCC43255 was grown and maintained anaerobically on CDC anaerobe agar (Remel, Lenexa, Kans.). To test the effect of antibacterial agents on growth, cells were grown anaerobically for 40 h at 35° C. in 96-well brain heart infusion (BHI) broth cultures, with an initial inoculum of 10^6 CFU/mL. To test the effect of antibacterial agents on toxin production at high C. difficile cell densities, the cells were grown anaerobically for 24 h at 35° C. in 96-well brain heart infusion (BHI) broth cultures. Spent medium was then replaced with fresh broth containing MetRS inhibitors and control agents at a concentration range of 0.015-16 μg/mL. After 4 days, growth and cell viability were monitored by optical density measurements at 595 nm and by culture on CDC anaerobe agar, respectively. Culture supernatants were collected, and toxin A was detected by ELIFA (enzyme-linked immuno-flow assay) using an anti toxin A monoclonal antibody (Novus Biologicals, Centennial, Colo.).

For a further assay, the system named is C. difficile. Kind of assay: C. difficile-infected hamster survival study. The format is in vivo. As to the method:
Animal studies were performed to determine the efficacy of MetRS inhibitors for treating C. difficile-infections. The MetRS inhibitors tested were 5-[3-((R)-6,8-Dibromo-chroman-4-ylamino)-propylamino]-4H-thieno[3,2-b]pyridine-7-one (both racemic mixture and the R enantiomer), 5-[3-((R)-8-Bromo-6-chloro-chroman-4-ylamino)-propylamino]-4H-thieno[3,2-b]pyridin-7-one, and 2-(3-{3,5-Dibromo-2-[2-(4-methyl-thiazol-5-yl)-ethoxy]-benzylamino}-propylamino)-1H-quinolin-4-one.
Results were compared to C. difficile-infected hamsters treated with the conventional antibiotic, vancomycin. Infected hamsters were treated with either a solution or suspension of a MetRS inhibitor at 5 to 50 mg/kg or vancomycin at 2.5, 5 or 25 mg/kg. There were eight hamsters per group with the final endpoint of the experiment being survival. Expired hamsters were examined for GI condition.

For `Cc1ncsc1CCOc1c(Br)cc(Br)cc1CNCCCNc1cc(=O)c2sccc2[nH]1`, the “concentrations that inhibited toxin production” value in assay [1] amounted to 0.25 µg/mL.

Consider `Cl.Cl.Cl.O=c1cc(NCCCNC2CCNc3c(Br)cc(Br)cc32)[nH]c2ccsc12` (stereo not drawn) [5-[3-(6,8-Dibromo-1,2,3,4-tetrahydro-quinolin-4-ylamino)-propylamino]-4H-thieno[3,2-b]pyridin-7-one tri-hydrochloride], for which the “concentrations that inhibited toxin production” value in assay [1] was 0.25 µg/mL.

With `O=c1cc(NCCCNC2CCOc3c(Br)cc(Br)cc32)[nH]c2ccsc12` (stereo not drawn) [5-[3-(6,8-Dibromo-chroman-4-ylamino)-propylamino]-4H-thieno[3,2-b]pyridin-7-one], the “concentrations that inhibited toxin production” value in assay [1] came to 0.25 µg/mL.

On to `O=c1cc(NCCCN[C@@H]2CCOc3c(Br)cc(Br)cc32)[nH]c2ccsc12` [5-[3-((R)-6,8-Dibromo-chroman-4-ylamino)-propylamino]-4H-thieno[3,2-b]pyridine-7-one], for which the “survival of infected hamsters” value in the assay on C. difficile (MetRS inhibitor at 5 to 50 mg/kg, untreated controls died within 3-4 days) is recorded as “best efficacy”.

On to `Cl.Cl.O=c1cc(NCCCN[C@@H]2CCOc3c(Br)cc(Br)cc32)[nH]c2ccsc12` [R-(+)-5-[3-(6,8-Dibromo-chroman-4-ylamino)-propylamino]-4H-thieno[3,2-b]pyridin-7-one di-hydrochloride], for which the “concentrations that inhibited toxin production” value in assay [1] was 0.25 µg/mL.

Regarding `CN[C@H](CC(C)C)C(=O)N[C@H]1C(=O)N[C@@H](CC(N)=O)C(=O)N[C@H]2C(=O)N[C@H]3C(=O)N[C@H](C(=O)N[C@H](C(=O)O)c4cc(O)cc(O)c4-c4cc3ccc4O)[C@H](O)c3ccc(c(Cl)c3)Oc3cc2cc(c3O[C@@H]2O[C@H](CO)[C@@H](O)[C@H](O)[C@H]2O[C@H]2C[C@](C)(N)[C@H](O)[C@H](C)O2)Oc2ccc(cc2Cl)[C@H]1O` [vancomycin, reference compound], the survival with vancomycin in the assay on C. difficile (Day 28, vancomycin at 2.5, 5 or 25 mg/kg) is 0-10%.
